US20060074049A1, “Use of heparinoids for treatment and prevention of dementia” (priority 2004, published 2006)

How the values were obtained:
p21 and p27 = p21 and p27 expression in NPC by immunohistochemistry; assay type: cell-based, human
Method: For p21 and p27 detection, NPC were grown with recombinant coat proteins for 24 hours. Cells were fixed and monoclonal antibodies to p21 or p27 (Pharmingen) were added. A secondary antibody conjugated to Cy3 was used for detection.
NCP were incubated with 800 pM recombinant coat proteins, and expression of p21 and p27 was analyzed using immunohistochemistry.

ERK = ERK phosphorylation in NPC by flow cytometry; assay type: cell-based, human
Method: Signaling: Isolated NPC were incubated with coat proteins for 10 minutes, placed on ice, fixed, permeabilized with saponin, and stained with fluorescein isothiocyanate-(FITC-) conjugated phosphospecific monoclonal antibodies to ERK (Santa Cruz Biotechnology, Santa Cruz, Calif.). Cells were then analyzed by flow cytometry. Activity of PP2A was inhibited by incubation with okadaic acid (Calbiochem, San Diego, Calif.) at 2.5 μM for 1 hour prior to the addition of coat proteins. Experiments were performed at least twice, and determinations were performed in triplicate.
Proliferation of NPC is increased by signals that increase ERK phosphorylation (Learish et al. (2000) Develop. Brain Res. 122:97-109). […] NPC were incubated with a panel of HIV coat proteins and assayed to determine the fraction of cells with phosphorylated ERK. The CM235 and IIIb coat proteins inhibited ERK phosphorylation by 34% and 77% respectively (p<0.05 for both; FIGS. 2A and 2B). […] Thus, HIV coat proteins are able to activate a cellular phosphatase by signaling through chemokine receptors and reduce ERK phosphorylation, leading to reduced NPC proliferation.

human NPC [1] = assay: Plating assay: NPC colony formation / quiescence; assay type: cell-based
Method: Cells and Materials: Normal human NPC were obtained from Clonetics Corp (San Diego, Calif.), and grown in neural progenitor maintenance medium (Clonetics) with human recombinant basic fibroblast growth factor, epidermal growth factor, neural survival factors and antibiotics. These cells were derived as described previously (Svendsen (1998) J. Neurosci. Meth. 85:141-152).
Plating Assay: On day 0, HIV coat proteins at a concentration of 800 pM, or CSF at a concentration of 2% was added to cultures of NPC. Each protein or CSF sample was tested in triplicate. Cultures were incubated for seven days, and then cells were plated onto 24 well polyethylene-imine coated plates. The number of cell colonies having more than 20 cells with typical neuronal morphology was counted for each well after 7 days in culture. Determinations of colony inhibition for all proteins and CSF samples were done on each of three different lots of NPC. Each lot was passaged 1-3 times before testing, with no differences seen between this number of passages.
The ability of HIV coat proteins to induce quiescence in human NPC was tested using NPC in the form of neurospheres. Typically, neurospheres with quiescent cells fail to attach and differentiate, while neurospheres containing proliferating cells will attach and differentiate into neurons and astrocytes. To determine whether only those coat proteins that signal through either the CXCR4 receptor or the […] receptor would induce quiescence of NPC, purified recombinant coat proteins from several different strains of HIV were tested. These included the R5 strain CM235, the X4 strain IIIb, and the clade E/A recombinant R5 strain 93TH975 (Gao et al. (1996) J. Virol. 70:1651-1667). […] The number of colonies containing more than 20 cells with typical neuronal morphology was counted after 7 days in culture. […] None of the coat proteins induced cell death in NPC, as determined by trypan blue staining (>95% viability in all coat-protein treated cultures). […]

human NPC [2] = assay: BrdU incorporation into NPC neurospheres by flow cytometry; assay type: cell-based
Source text: FIG. 1 is a graph showing the number of NPC colonies displaying outgrowth of cells with neuronal morphology after treatment with coat proteins from the HIV strains 93TH975, CM235 and IIIb. The mean+/−standard error is shown. PTX=pertussis toxin, Anti V3=monoclonal antibody to the V3 loop region of gp120. FIG. 1B is a series of graphs showing the level of bromodeoxyuridine (BrdU) incorporation into NPC neurospheres treated with coat proteins from the HIV strains 93TH975, CM235 and IIIb. Shaded area=control cells, solid line=treated cells.
To quantitate the ability of the coat proteins to cause cells to become quiescent, the number of attached, differentiated colonies was counted. […] In contrast, the 93TH975 coat protein had no effect. In order to confirm that cell proliferation was indeed inhibited by the coat proteins, cultures of NPC were labeled with BrdU, and BrdU incorporation was measured by flow cytometry.

[3] = tested on: NPC in human hippocampal slices; assay: Hippocampal slice cultures, BrdU positive NPC; assay type: cell-based; details: coat protein 1 nM; p<0.001
Method: Hippocampal slice cultures: Discarded hippocampal tissue was obtained from patients undergoing corrective surgery for seizures as previously described (Roy et al. (2000) Nat. Med. 6:271-277; and Pincus et al. (1998) Neurosurg. 42:858-868). Tissue was obtained within 1 hour of removal and cultured as described (Stoppini et al. (1991) J. Neurosci, Meth. 37:173-182). Briefly, tissue was sliced to 200 μm thickness using a Brendel-Vitron tissue slicer (Vitron, Inc., Tucson, Ariz.). Slices were placed in a Transwell insert (Costar, Corning, N.Y.) and cultured in neural progenitor maintenance medium (NPMM) with or without chemokines (500 ng/ml), HIV coat proteins (1 nM) or CSF (2%) added on day 0. Each sample was tested in triplicate. The entire experiment was performed at least twice with identical results. Slices were labeled with BrdU on day 5 of culture, and harvested for immunohistochemistry on day 7 by freezing slices in OCT. Five-micron sections were made, and BrdU incorporation was detected using a BrdU in situ kit (Pharmingen, San Diego, Calif.). For dual staining of BrdU and Musashil, a polyclonal antibody to Musashil (Chemicon International, Temecula, Calif.) was used at a dilution of 1:10. Apoptotic cells were detected using a TUNEL assay (Oncogene, Boston, Mass.). […]

human neurospheres (NPC) = assay: Block of IIIb coat protein effect on NPC proliferation by recombinant apolipoproteins; assay type: cell-based; details: 20 nM recombinant apolipoprotein
Method: FIG. 6 is a graph showing the number of BrdU labeled NPC in samples treated with recombinant HIV gp120 from the IIIb strain, which was pre-incubated with or without recombinant ApoE3 and ApoE4.
A risk factor for the development of HIV dementia is homozygosity for the apolipoprotein E4 genotype (Corder et al. (1998) Nat. Med. 4:1182-1184). In Herpes simplex virus infection, it has been speculated that apo E proteins compete with HSV for binding to HS, and that apo E4 cannot compete as efficiently as apo E3 (Itzhaki et al. (1998) Nat. Med. 4:1344). To determine whether apolipoproteins might compete with HIV coat proteins for binding to cell surface HS on NPC, human neurospheres were incubated with the IIIb coat protein, and the ability of recombinant apolipoproteins to block the inhibitory effect of the coat protein on NPC proliferation was tested. […] Thus, apolipoproteins compete with HIV coat proteins for cell surface binding.

Compound: c1cc(CN2CCCNCCNCCCNCC2)ccc1CN1CCCNCCNCCCNCC1 [AMD3100, reference compound]
- effect on induction of p21 and p27 by the IIIb coat protein (p21 and p27; with IIIb coat protein): blocked

Compound: C=C1[C@@H](O)[C@@H]2O[C@]3(CC[C@H](/C=C/[C@@H](C)[C@@H]4CC(C)=C[C@@]5(O[C@H](C[C@@](C)(O)C(=O)O)CC[C@H]5O)O4)O3)CC[C@H]2O[C@@H]1[C@@H](O)C[C@H](C)[C@H]1O[C@@]2(CCCCO2)CC[C@H]1C [okadaic acid, reference compound]
- effect on inhibition of ERK phosphorylation induced by CM235 and IIIb coat proteins (ERK; 2.5 μM for 1 hour prior to coat proteins): blocked the inhibition of ERK phosphorylation

Compound: IIIb: purified recombinant HIV coat protein (gp120) of the X4 strain IIIb
- induction of quiescence / effect on attached differentiated NPC colonies (in words) (human NPC [1]; coat protein 800 pM for 7 days): caused NPC to enter a quiescent state
- reduction of the number of differentiated NPC colonies (human NPC [1]; coat protein 800 pM for 7 days, colonies counted after 7 days on coated plates, p<0.001): 74%
- BrdU incorporation into NPC, tested 7 days after addition of coat proteins (human NPC [2]; 7 days after addition): incorporation similar to controls
- BrdU incorporation into NPC compared with controls (human NPC [2]; coat protein treated NPC): less BrdU incorporation
- expression of p21 and p27 in NPC (p21 and p27; 800 pM recombinant coat protein): induced expression of p21 and p27
- reduction in fraction of NPC with phosphorylated ERK (ERK; NPC incubated with coat protein 10 minutes, p<0.05 for CM235 and IIIb, 93TH975 non-significant): 77%
- reduction of proliferation of NPC (BrdU positive cells) in hippocampal slices [3]: 70%

Compound: apo E3: recombinant apolipoprotein E3
- block of IIIb coat protein inhibition of NPC proliferation (human neurospheres (NPC)): prevented the IIIb coat protein from inhibiting NPC proliferation

Compound: apo E4: recombinant apolipoprotein E4
- block of IIIb coat protein inhibition of NPC proliferation (human neurospheres (NPC)): did not

Compound: pertussis toxin [reference compound]
- effect on the inhibitory effects of CM235 and IIIb coat proteins on NPC (human NPC [1]; added to NPC cultures in addition to coat proteins): eliminated
